The target in test [1] is Mitogen-activated protein kinase kinase kinase 1 (Homo sapiens, UniProt Q13233). Nature of the test: Selectivity interaction (ActivX KiNativ screen (ex vivo kinase selectivity in human PBMCs)) EUB0001619a MAP3K1. Type of test: cell-based. The conditions noted are these: PBMC, at 1 µM.
The target in test [2] is T1, Phosphatidylinositol 3-kinase C2 domain-containing subunit gamma (Homo sapiens) (UniProt O75747).
T1 sequence (whole entry): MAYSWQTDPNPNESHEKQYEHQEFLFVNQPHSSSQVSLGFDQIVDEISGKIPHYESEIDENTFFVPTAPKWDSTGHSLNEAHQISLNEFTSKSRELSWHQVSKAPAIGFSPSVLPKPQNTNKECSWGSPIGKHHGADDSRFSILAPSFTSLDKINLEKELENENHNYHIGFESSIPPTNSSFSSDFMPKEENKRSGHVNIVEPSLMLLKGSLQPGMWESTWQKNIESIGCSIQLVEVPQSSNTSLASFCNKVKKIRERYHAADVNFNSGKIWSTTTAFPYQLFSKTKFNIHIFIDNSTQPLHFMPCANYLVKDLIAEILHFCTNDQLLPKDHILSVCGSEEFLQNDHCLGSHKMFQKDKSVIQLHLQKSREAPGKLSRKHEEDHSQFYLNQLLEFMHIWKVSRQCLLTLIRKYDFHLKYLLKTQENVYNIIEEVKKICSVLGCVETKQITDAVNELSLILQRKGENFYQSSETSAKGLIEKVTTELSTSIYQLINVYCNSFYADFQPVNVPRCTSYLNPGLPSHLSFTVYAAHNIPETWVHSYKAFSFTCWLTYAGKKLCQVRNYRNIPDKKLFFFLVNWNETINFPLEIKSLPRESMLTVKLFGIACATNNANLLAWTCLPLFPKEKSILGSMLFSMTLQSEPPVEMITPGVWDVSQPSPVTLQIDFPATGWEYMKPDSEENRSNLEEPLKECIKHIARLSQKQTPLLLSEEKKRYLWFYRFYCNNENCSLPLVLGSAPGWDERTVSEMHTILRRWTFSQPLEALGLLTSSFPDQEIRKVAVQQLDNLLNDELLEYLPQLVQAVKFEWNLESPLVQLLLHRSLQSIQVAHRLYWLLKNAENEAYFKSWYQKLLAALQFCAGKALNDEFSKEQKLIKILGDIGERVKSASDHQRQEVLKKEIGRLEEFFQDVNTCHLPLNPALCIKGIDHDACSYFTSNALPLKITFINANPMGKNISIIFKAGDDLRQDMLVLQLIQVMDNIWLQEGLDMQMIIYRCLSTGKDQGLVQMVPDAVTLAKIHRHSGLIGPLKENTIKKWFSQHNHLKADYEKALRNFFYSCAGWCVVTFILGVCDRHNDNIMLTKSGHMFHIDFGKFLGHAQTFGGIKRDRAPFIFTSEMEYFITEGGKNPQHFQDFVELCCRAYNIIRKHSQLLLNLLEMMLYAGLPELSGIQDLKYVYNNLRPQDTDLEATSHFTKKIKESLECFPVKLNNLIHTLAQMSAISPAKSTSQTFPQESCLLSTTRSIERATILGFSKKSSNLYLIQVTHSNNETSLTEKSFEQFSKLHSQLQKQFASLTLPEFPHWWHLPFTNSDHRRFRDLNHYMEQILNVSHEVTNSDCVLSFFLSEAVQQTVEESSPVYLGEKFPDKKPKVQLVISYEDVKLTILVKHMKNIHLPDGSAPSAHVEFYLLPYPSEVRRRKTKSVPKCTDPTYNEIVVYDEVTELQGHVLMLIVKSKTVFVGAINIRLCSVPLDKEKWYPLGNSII
The test can be described thus: Selectivity interaction (KinomeScan (DiscoverX)) EUB0000607a PIK3C2G. As to conditions: at 10 µM.

The target of test [3] is Proto-oncogene tyrosine-protein kinase receptor Ret (Homo sapiens, UniProt P07949). Nature of the test: (§1) Selectivity interaction (KinomeScan (DiscoverX)) EUB0000092b RET. As to conditions: at 10 µM.
The subject of test [4] is Proto-oncogene tyrosine-protein kinase receptor Ret (Homo sapiens), P07949 [V804L]. Described as §1. The conditions noted are these: at 10 µM.
The test system of test [5] is Proto-oncogene tyrosine-protein kinase receptor Ret (Homo sapiens), P07949 [V804M]. Described as §1. The conditions noted are these: at 10 µM.
Test [6] concerns Proto-oncogene tyrosine-protein kinase receptor Ret (Homo sapiens), P07949 [M918T]. The test is described as §1. The conditions noted are these: at 10 µM.
The target of test [7] is Histone-lysine N-methyltransferase SETDB1 (Homo sapiens) (UniProt Q15047). Nature of the test: Selectivity interaction (Methyltransferase screen (radiometric assays, panel of 8 PRMTs, 21 protein lysine methyltransferases, 3 DNA methyltransferases, and one RNA methyltransferase)) EUB0000271b SETDB1.
Test [8] has as its target T2, Calcium/calmodulin-dependent protein kinase type IV (Homo sapiens) (UniProt Q16566).
T2 sequence (whole entry): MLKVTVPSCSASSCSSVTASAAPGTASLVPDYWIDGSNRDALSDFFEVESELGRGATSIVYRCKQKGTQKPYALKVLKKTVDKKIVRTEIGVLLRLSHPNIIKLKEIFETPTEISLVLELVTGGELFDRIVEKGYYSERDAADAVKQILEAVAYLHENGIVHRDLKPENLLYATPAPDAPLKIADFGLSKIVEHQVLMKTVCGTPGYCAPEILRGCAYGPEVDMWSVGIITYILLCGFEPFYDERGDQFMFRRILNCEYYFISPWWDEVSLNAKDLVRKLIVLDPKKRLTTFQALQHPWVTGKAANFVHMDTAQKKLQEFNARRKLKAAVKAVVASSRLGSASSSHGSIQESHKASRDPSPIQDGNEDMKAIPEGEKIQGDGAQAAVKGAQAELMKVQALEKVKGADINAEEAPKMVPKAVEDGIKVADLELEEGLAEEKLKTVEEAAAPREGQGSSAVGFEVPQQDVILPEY
The test can be described thus: Selectivity interaction (KinomeScan (DiscoverX)) EUB0000229b CAMK4. The conditions noted are these: at 10 µM.

The target of test [9] is T3, Phosphatidylinositol 5-phosphate 4-kinase type-2 alpha (Homo sapiens) (UniProt P48426).
T3 sequence (whole entry): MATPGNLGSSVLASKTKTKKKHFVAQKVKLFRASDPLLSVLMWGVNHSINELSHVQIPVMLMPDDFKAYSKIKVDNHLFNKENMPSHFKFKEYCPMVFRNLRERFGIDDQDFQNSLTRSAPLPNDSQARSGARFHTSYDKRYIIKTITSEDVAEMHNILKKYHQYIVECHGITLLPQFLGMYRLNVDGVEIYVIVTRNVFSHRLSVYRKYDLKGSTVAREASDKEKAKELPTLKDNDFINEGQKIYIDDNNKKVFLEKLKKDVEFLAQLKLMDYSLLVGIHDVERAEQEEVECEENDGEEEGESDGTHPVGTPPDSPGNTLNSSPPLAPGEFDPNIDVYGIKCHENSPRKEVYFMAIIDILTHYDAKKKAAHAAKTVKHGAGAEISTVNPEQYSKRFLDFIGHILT
Nature of the test: Selectivity interaction (Kinase panel (KiNativ target engagement assay in Jurkat cells)) EUB0001635a PIP4K2A. Type of test: cell-based. The conditions noted are these: Selectivity number of off-targets 0.0, Selectivity number of targets 233.0, Source Knowledge https://www.sciencedirect.com/science/article/pii/S2451945619300674?via%3Dihub, at 1 µM.

The structures appear in SMILES notation.

This note sets out measurements from ChEMBL document CHEMBL5465560, “Selectivity Literature for EUbOPEN Chemogenomic Library” (2024).

Chain of Proto-oncogene tyrosine-protein kinase receptor Ret (P07949 whole entry): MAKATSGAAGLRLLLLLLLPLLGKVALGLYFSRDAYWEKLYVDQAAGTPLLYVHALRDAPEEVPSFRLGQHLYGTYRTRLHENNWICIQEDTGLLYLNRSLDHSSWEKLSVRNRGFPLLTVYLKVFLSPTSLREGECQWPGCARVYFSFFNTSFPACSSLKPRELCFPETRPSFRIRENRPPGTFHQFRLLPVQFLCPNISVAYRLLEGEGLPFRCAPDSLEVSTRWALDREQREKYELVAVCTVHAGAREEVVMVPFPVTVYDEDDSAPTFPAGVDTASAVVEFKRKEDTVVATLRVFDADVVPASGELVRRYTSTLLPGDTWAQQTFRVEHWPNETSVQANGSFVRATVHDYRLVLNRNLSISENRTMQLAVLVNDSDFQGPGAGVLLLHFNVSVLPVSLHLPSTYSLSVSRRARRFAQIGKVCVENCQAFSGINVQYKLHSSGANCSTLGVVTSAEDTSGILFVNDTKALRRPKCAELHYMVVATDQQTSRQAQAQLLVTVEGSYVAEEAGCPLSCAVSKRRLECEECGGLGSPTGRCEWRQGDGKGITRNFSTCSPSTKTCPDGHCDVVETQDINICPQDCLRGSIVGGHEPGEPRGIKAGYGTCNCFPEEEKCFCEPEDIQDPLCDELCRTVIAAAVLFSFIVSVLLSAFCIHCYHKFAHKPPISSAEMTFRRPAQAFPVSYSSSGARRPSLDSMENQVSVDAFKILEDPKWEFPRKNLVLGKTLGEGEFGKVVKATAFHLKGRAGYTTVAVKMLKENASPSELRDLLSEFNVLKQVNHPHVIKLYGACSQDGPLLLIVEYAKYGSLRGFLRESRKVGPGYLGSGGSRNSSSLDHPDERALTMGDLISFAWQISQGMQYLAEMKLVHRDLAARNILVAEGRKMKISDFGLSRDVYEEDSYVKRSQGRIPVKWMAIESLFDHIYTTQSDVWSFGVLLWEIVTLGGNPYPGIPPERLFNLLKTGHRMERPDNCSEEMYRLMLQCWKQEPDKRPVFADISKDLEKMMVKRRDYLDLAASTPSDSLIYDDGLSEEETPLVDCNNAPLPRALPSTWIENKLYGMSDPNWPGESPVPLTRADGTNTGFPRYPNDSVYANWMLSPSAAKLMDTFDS
Chain of Proto-oncogene tyrosine-protein kinase receptor Ret (Homo sapiens), P07949 [M918T] (P07949 whole entry M918T): as the sequence (P07949 whole entry) above, with M918T counted along it
Chain of Proto-oncogene tyrosine-protein kinase receptor Ret (Homo sapiens), P07949 [V804L] (P07949 whole entry V804L): as the sequence (P07949 whole entry) above, with V804L counted along it
Chain of Proto-oncogene tyrosine-protein kinase receptor Ret (Homo sapiens), P07949 [V804M] (P07949 whole entry V804M): as the sequence (P07949 whole entry) above, with V804M counted along it
Chain of Mitogen-activated protein kinase kinase kinase 1 (Q13233 whole entry, the tested form may be a part): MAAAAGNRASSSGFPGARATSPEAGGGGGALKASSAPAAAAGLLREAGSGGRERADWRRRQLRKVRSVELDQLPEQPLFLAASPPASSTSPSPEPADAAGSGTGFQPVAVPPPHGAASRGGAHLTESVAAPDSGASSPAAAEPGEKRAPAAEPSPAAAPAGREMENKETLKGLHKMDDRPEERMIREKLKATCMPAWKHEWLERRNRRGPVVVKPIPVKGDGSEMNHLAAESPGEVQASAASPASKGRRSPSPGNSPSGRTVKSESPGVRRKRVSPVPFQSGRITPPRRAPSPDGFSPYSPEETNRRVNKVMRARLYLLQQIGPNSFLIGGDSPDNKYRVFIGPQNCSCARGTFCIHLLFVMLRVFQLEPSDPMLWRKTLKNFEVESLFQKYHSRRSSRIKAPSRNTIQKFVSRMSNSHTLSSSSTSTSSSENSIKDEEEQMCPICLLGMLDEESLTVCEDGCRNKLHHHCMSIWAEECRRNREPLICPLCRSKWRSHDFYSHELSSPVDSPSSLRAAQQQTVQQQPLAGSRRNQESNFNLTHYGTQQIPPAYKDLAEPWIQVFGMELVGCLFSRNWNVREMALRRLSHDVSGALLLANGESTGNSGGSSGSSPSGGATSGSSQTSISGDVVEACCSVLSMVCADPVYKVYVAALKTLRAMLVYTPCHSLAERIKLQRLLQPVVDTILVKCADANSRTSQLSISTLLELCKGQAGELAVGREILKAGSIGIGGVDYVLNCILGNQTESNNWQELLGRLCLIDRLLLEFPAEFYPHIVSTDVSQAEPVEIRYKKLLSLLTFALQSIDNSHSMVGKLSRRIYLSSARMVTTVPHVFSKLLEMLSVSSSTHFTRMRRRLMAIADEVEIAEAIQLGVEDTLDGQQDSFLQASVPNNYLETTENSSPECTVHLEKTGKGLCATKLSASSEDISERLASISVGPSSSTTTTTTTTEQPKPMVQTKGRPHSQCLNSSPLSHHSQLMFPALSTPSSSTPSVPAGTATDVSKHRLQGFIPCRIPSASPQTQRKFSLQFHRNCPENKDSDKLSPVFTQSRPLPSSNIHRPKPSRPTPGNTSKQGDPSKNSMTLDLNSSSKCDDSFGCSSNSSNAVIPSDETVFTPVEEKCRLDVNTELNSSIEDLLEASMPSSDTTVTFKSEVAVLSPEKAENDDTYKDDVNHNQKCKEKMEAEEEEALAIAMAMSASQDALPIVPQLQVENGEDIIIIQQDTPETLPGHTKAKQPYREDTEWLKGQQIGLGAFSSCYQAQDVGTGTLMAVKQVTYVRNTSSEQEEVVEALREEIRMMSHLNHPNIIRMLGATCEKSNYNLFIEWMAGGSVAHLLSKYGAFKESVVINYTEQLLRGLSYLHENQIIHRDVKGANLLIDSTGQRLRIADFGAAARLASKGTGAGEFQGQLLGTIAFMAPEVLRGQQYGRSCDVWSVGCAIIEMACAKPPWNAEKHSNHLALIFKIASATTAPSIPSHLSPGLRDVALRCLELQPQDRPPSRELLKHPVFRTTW

With `N#Cc1cccc(-c2c[nH]c3ncnc(N4CCOCC4)c23)c1`, the % of inhibition in test [1] came out at 45%. Molecule `CNC(=O)Nc1ccc(-c2nc(N3CC4CCC(C3)O4)c3cnn(C4CCC5(CC4)OCCO5)c3n2)cc1` returned a % of control in [2] of 22%. Consider `CCC(=O)N1CCN(c2ccc(-n3c(=O)ccc4cnc5ccc(-c6cnc7ccccc7c6)cc5c43)cc2C(F)(F)F)CC1`, for which the % of control was found to be 44% in test [3], 66% in [4], 69% in test [5] and 51% in [6].

Consider `Cc1cc(C)cc([C@@H]2c3cc(C)ccc3NC(=O)CN2C(=O)c2ccc(Br)s2)c1`, for which the % of activity in test [7] (at 1 µM) amounted to 102%; in test [7] (at 10 µM), 104%. Consider `COc1cc(N(C)c2ccnc3ccc(C(F)(F)F)cc23)cc(OC)c1OC`, for which the % binding in test [8] came to 98%. With `C=CC(=O)Nc1ccc(C(=O)Nc2[nH]nc3c2CN(C(=O)N[C@H](CN(C)C)c2ccccc2)C3(C)C)cc1`, in test [9], the % of engagement is -3.2%.
